SMILES strings stand for the structures. Structures can show the parent of a compound that is named as a salt. Residues, ends and D or L forms follow the SMILES beside them.

The first series concerns the target T1, ABCG2 (Homo sapiens, UniProt Q9UNQ0).
T1 sequence (Q9UNQ0 1-655): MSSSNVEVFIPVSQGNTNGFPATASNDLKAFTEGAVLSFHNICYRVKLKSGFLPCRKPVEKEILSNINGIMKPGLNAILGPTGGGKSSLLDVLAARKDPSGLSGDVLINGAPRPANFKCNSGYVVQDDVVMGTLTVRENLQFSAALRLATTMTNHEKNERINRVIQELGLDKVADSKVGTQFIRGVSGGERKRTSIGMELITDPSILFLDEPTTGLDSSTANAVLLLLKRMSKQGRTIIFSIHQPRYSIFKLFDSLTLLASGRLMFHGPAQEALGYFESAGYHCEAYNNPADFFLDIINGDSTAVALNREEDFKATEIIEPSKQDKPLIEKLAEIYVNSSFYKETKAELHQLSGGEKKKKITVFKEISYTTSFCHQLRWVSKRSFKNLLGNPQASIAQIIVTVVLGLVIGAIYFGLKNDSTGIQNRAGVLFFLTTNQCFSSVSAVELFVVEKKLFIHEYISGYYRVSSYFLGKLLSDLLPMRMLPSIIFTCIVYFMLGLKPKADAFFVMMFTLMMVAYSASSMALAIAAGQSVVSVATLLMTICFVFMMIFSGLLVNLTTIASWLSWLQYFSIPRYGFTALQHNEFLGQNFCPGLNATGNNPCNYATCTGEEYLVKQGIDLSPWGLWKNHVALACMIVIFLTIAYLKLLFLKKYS
Nature of the series: Bioluminescence imaging (BLI) assay in HEK293/ABCG2/fLuc cells.
Details: not given
The procedure:
HEK293/ABCG2/fLuc cells were plated into 96-well plates at a density of 4×10^4 cells/100 μL per well and were allowed to attach overnight. The following day, 10 μL of each compound or the control solvent was transferred from a compound library in a 96-well, high-throughput format into the wells using a multichannel pipette. […] Images were taken every 5 minutes for ˜1 h. Light output from each well was quantified at the 40 min time point after initiation of imaging, and the signal-to-background (S/B) ratio of the light output from each compound divided by that from the control well was calculated. This S/B ratio serves as an indicator of the potency of ABCG2 inhibition, the mechanism by which BLI signal is enhanced.
Images were taken every 5 min for ˜1 h, and light output from each well at the 40 min time point was chosen for quantification. The SB ratio of the light output from each compound divided by that from the control well was calculated. This ratio was used as an indicator of the potency of ABCG2 inhibition, the mechanism by which BLI signal is enhanced.
The BLI signal-enhancing effect of selected ABCG2 inhibitors was evaluated within the range of 0.001 μM-100 μM, with HEK293/ABCG2/fLuc cells and 50 μg/mL D-luciferin. The data obtained at 40 min after imaging commencement were chosen arbitrarily to be plotted (FIG. 3).
For `Cl.Cl.OCCN1CCN(CCCN2c3ccccc3Sc3ccc(C(F)(F)F)cc32)CC1` [flufenazine hydrochloride], the “Fold (BLI enhancement, S/B ratio over control)” value was determined as 4.3 fold.
In the case of `CNc1ccc2oc(C[C@H]3O[C@@]4(CC[C@H]3C)O[C@H]([C@H](C)C(=O)c3ccc[nH]3)[C@H](C)C[C@H]4C)nc2c1C(=O)O` [calcimycin], the “BLI signal enhancement at lower concentrations” value is given as “enhance BLI signal minimally”.

The same series, now with this note: Table 2; HEK293/ABCG2/fLuc cells, compound approximately 17 μM, ~50 μg/mL D-luciferin, 40 min time point.
Turning to `COc1cc(-c2oc3cc(O)cc(O)c3c(=O)c2O)ccc1O` [isorhamnetin], the “Fold (BLI enhancement, S/B ratio over control)” value came out at 7.0 fold.
Regarding `COc1ccc2cc3[n+](cc2c1OC)CCc1cc2c(cc1-3)OCO2.O=S(=O)([O-])O` [berberine bisulfate], the “Fold (BLI enhancement, S/B ratio over control)” value worked out at 2.2 fold.
Still for that read-out and setting: the figure for `C=C(C)[C@]12C[C@@H](C)[C@@]34O[C@](Cc5ccccc5)(O[C@@H]1[C@@H]3C=C(COC(=O)Cc1ccc(O)c(OC)c1)C[C@]1(O)C(=O)C(C)=C[C@@H]41)O2` [resiniferatoxin] is 4.2 fold.

Still in this series, the particulars now being: Table 4; approximately 17 μM, 40 min time point.
For the compound `COc1cc(-c2oc3cc(O)cc(O)c3c(=O)c2O)ccc1O` [isorhamnetin], the “Fold (BLI enhancement), previously unknown compounds” value (“Fold … previously unknown compounds” for short) worked out at 7.0 fold.

Staying with this series, now noted: human.
`Cc1cc(O)c2c(=O)c3c(O)cc(O)c4c5c(O)cc(O)c6c(=O)c7c(O)cc(C)c8c1c2c(c34)c(c78)c65` [hypericin]: the “Fold (BLI enhancement, S/B ratio over control)” value is reported as 3.3 fold.
For the compound `C[C@]12Cc3c[nH]nc3C[C@@H]1CC[C@@H]1[C@@H]2CC[C@@]2(C)[C@H]1CC[C@]2(C)O` [stanozolol], the “Fold (BLI enhancement, S/B ratio over control)” value is given as 2.8 fold.
Same read-out and setting: to `COc1ccc(Cc2nccc3cc(OC)c(OC)cc23)cc1OC` [papaverine hydrochloride] belongs 2.0 fold.

Staying with this series, now noted: human, 40 min, 17 μM.
As to `CC(=O)c1ccc2c(c1)N(CCCN1CCC(CCO)CC1)c1ccccc1S2` [piperacetazine], the “Fold … previously unknown compounds” value was 5.8 fold and the “Fold (BLI enhancement, S/B ratio over control)” value came to 5.8 fold.
For the compound `CCC(C)(C)C(=O)O[C@H]1C[C@@H](C)C=C2C=C[C@H](C)[C@H](CC[C@@H]3C[C@@H](O)CC(=O)O3)[C@H]21` [simvastatin], the “Fold (BLI enhancement, S/B ratio over control)” value worked out at 2.7 fold.
Turning to `COc1ccc([C@@H]2CC(=O)c3c(O)cc(O)cc3O2)cc1O` [hesperetin], the “Fold (BLI enhancement), known compounds” value amounted to 5.0 fold and the “Fold (BLI enhancement, S/B ratio over control)” value worked out at 5.0 fold.
Regarding `C=C1C[C@@H]2[C@H](CC[C@]3(C)C(=O)CC[C@@H]23)[C@@]2(C)C=CC(=O)C=C12` [exemestane], the “Fold (BLI enhancement, S/B ratio over control)” value was determined as 2.1 fold.
In the case of `COc1cc(/C=C/C(=O)CC(=O)/C=C/c2ccc(O)c(OC)c2)ccc1O` [curcumin], the “Fold (BLI enhancement), known compounds” value was 6.3 fold and the “Fold (BLI enhancement, S/B ratio over control)” value is recorded as 6.3 fold.
`COC(=O)Nc1nc2cc(C(=O)c3ccc(F)cc3)ccc2[nH]1` [flubendazole]: the “Fold … previously unknown compounds” value is listed as 6.3 fold and the “Fold (BLI enhancement, S/B ratio over control)” value amounted to 6.3 fold.
As to `CO[C@]12C[C@@H](COC(=O)c3cncc(Br)c3)CN(C)[C@@H]1Cc1cn(C)c3cccc2c13` [nicergoline], the “Fold (BLI enhancement, S/B ratio over control)” value amounted to 2.0 fold.
Same read-out and setting: to `CN1CCCC(n2nc(Cc3ccc(Cl)cc3)c3ccccc3c2=O)CC1` (stereo not shown) [azelastine hydrochloride] belongs 2.4 fold; to `CC(=O)SCC(Cc1ccccc1)C(=O)NCC(=O)OCc1ccccc1` (stereo not shown) [racecadotril], 2.0 fold; to `C#C[C@]1(O)CC[C@H]2[C@@H]3CCc4cc(O)ccc4[C@H]3CC[C@@]21C` [ethinyl estradiol], 2.4 fold.
For `CCCCC(=O)O[C@]1(C(=O)CO)[C@@H](C)C[C@H]2[C@@H]3CCC4=CC(=O)C=C[C@]4(C)[C@@]3(F)[C@@H](O)C[C@@]21C` [betamethasone valerate], the “Fold (BLI enhancement, S/B ratio over control)” value came to 2.6 fold.
On the same count and under the same terms, the figure for `CN(C)CCOc1ccc(/C(=C(/CCCl)c2ccccc2)c2ccccc2)cc1` [toremifene] is 2.3 fold.
Regarding `OCCN1CCN(CCCN2c3ccccc3Sc3ccc(Cl)cc32)CC1` [perphenazine], the “Fold (BLI enhancement, S/B ratio over control)” value is reported as 4.2 fold.
As for `COC(=O)[C@H]1[C@H]2C[C@@H]3c4[nH]c5cc(OC)ccc5c4CCN3C[C@H]2C[C@@H](OC(=O)c2cc(OC)c(OC)c(OC)c2)[C@@H]1OC` [reserpine], the “Fold (BLI enhancement), known compounds” value stood at 5.4 fold and the “Fold (BLI enhancement, S/B ratio over control)” value is 5.4 fold.
`CC(C)(C)NC(=O)[C@@H]1C[C@@H]2CCCC[C@@H]2CN1C[C@@H](O)[C@H](Cc1ccccc1)NC(=O)[C@H](CC(N)=O)NC(=O)c1ccc2ccccc2n1` [saquinavir mesylate]: the “Fold (BLI enhancement, S/B ratio over control)” value is 4.9 fold and the “fold (BLI enhancement), additional previously known ABCG2 inhibitors” value is 4.9 fold.
As to `Cc1cc(O)c2c(c1)C(=O)c1cc(O)cc(O)c1C2=O` [emodin], the “Fold … previously unknown compounds” value is listed as 6.4 fold and the “Fold (BLI enhancement, S/B ratio over control)” value was 6.4 fold.
Consider `CCCc1nc(C)c2c(=O)[nH]c(-c3cc(S(=O)(=O)N4CCN(CC)CC4)ccc3OCC)nn12` [vardenafil], for which the “Fold (BLI enhancement, S/B ratio over control)” value was found to be 3.3 fold.
For `COC(=O)C1=C(C)NC(C)=C(C(=O)OCCN(C)Cc2ccccc2)C1c1cccc([N+](=O)[O-])c1` (stereo not shown) [nicardipine], the “Fold (BLI enhancement, S/B ratio over control)” value is given as 2.9 fold and the “fold (BLI enhancement), additional previously known ABCG2 inhibitors” value was 2.9 fold.
`CCCc1nc2c(C)cc(-c3nc4ccccc4n3C)cc2n1Cc1ccc(-c2ccccc2C(=O)O)cc1` [telmisartan]: the “Fold (BLI enhancement, S/B ratio over control)” value came to 2.0 fold.
On the same count and under the same terms, to `CCN(CC)Cc1cc(Nc2ccnc3cc(Cl)ccc23)ccc1O` [amodiaquin] belongs 3.8 fold; to `COc1ccccc1N1CCN(CC(O)COc2cccc3ccccc23)CC1` (stereo not shown) [naftopidil], 2.4 fold.
For the compound `NCCS` [mercaptamine hydrochloride], the “Fold (BLI enhancement, S/B ratio over control)” value is 2.2 fold.
As to `O=c1c(-c2ccc(O)cc2)coc2cc(O)cc(O)c12` [genistein], the “BLI signal enhancement” value is 1.2 fold and the “fold (BLI enhancement), additional previously known ABCG2 inhibitors” value was determined as 1.2 fold.
As to `CC(C)OC(=O)C(C)(C)Oc1ccc(C(=O)c2ccc(Cl)cc2)cc1` [fenofibrate], the “Fold (BLI enhancement, S/B ratio over control)” value came to 2.3 fold.
Regarding `COCCOC(=O)C1=C(C)NC(C)=C(C(=O)OC(C)C)C1c1cccc([N+](=O)[O-])c1` (stereo not shown) [nimodipine], the “Fold (BLI enhancement, S/B ratio over control)” value is on record as 2.8 fold and the “fold (BLI enhancement), additional previously known ABCG2 inhibitors” value stood at 2.8 fold.
With `O=c1[nH]c(=O)n([C@H]2C[C@H](O)[C@@H](CO)O2)cc1F` [floxuridine], the “Fold (BLI enhancement, S/B ratio over control)” value worked out at 2.2 fold.
`O=C1CCc2cc(OCCCCc3nnnn3C3CCCCC3)ccc2N1` [cilostazol]: the “Fold (BLI enhancement, S/B ratio over control)” value was found to be 3.8 fold.
The same measure, in the same setting: to `CC(=O)Oc1ccc2c(c1)CCC1C2CC[C@]2(C)C(=O)CCC12` (stereo partly shown) [estrone acetate] belongs 4.1 fold; to `Clc1ccc(COC(Cn2ccnc2)c2ccc(Cl)cc2Cl)cc1` (stereo not shown) [econazole], 2.5 fold; to `CCOc1ccc(Cc2nccc3cc(OCC)c(OCC)cc23)cc1OCC` [ethaverine hydrochloride], 2.6 fold.
The same measure, in the same setting: the figure for `O=c1[nH]c2ccccc2n1CCCN1CCC(n2c(=O)[nH]c3cc(Cl)ccc32)CC1` [domperidone] is 2.5 fold; for `O=C1C(O)=C([C@H]2CC[C@H](c3ccc(Cl)cc3)CC2)C(=O)c2ccccc21` [atovaquone] it is 3.5 fold.
Still for that read-out and setting: to `NC1(C(=O)NCC(=O)O)CCCC1` [cycloleucylglycine] (HELM PEPTIDE1{[NC1(C(=O)[*:2])CCCC1].G}$$$$V2.0) belongs 2.5 fold.
With `COC(=O)[C@H]1[C@H]2C[C@H]3c4[nH]c5cc(OC)ccc5c4CCN3C[C@H]2C[C@@H](OC(=O)c2cc(OC)c(OC)c(OC)c2)[C@@H]1OC` [isoreserpine], the “Fold … previously unknown compounds” value is 6.2 fold and the “Fold (BLI enhancement, S/B ratio over control)” value is recorded as 6.2 fold.
For the compound `C=C1CC[C@H](O)C/C1=C/C=C1\CCC[C@]2(C)[C@@H]([C@H](C)CCCC(C)(C)O)CC[C@@H]12` [calcifediol], the “Fold (BLI enhancement, S/B ratio over control)” value is 3.2 fold.

(Values after patent US20150148256A1, “BIOLUMINESCENCE IMAGING-BASED SCREENING ASSAY AND INHIBITORS OF ABCG2” (THE JOHNS HOPKINS UNIVERSITY, priority 2008, published 2015).)
